How the values were obtained:
[1] = system: marijuana variety Lemon Creamsicle; test: Foliar spray of CJ or MDJ on high-THC marijuana in greenhouse, cannabinoid analysis; type: in vivo, Cannabis spp.; conditions: 7.5 mM foliar spray every 14 days, four treatments
Procedure: Applicant's previous experiments investigated the effects of jasmonate-type elicitors MeJA, MDJ, and CJ on hemp (high fiber) and high-CBD, (low-THC) varieties of Cannabis. […] Here, the effects of MDJ and CJ application on a high-THC variety in a controlled environment was investigated. High-THC, low-CBD marijuana variety “Lemon Creamsicle” (LC), was grown in a greenhouse setting. LC was used as a plant model due to its historically consistent metabolite profile in the greenhouse environment, making it a stable, known, and reliable variety.
A four-block plant trial was implemented with a population of N=12 plants and treatment group sizes of n=4. The treatment and control groups were defined as follows: Control=water+0.1% TWEEN®-20 aqueous foliar spray, Treatment 1=[7.5 mM] CJ+0.1% TWEEN®-20 aqueous foliar spray, Treatment 2=[7.5 mM] MDJ+0.1% TWEEN®-20 aqueous foliar spray. A standardized concentration of [7.5 mM] for both CJ and MDJ applications was chosen due to its performance in Applicant's past research. All treatment solutions were prepared the day of the application in equal volumes from pre-measured quantities of the stock materials to ensure consistency, i.e., appropriate volumes of CJ or MDJ were combined with appropriate volumes of TWEEN®-20 for each experimental treatment, stored in a sealed centrifuge tube, and diluted in the appropriate amount of water immediately prior to application. Separate sprayers were used for each treatment and control sprays to avoid cross-contamination.
All plants in the trial were produced as asexual clone stock taken from the same mother plant at the same time to ensure homogeneity. All plants were rooted and grown in accordance with the production practices typical to this greenhouse operator prior to plant selection for the experiment. Due to the layout of the cultivation system, which features immovable hydroponic “pots” that house the plant throughout the entire flowering (i.e., reproductive) phase, all plants included in the experiment were selected from a set section of the greenhouse after final transplant into the hydroponic system and grouped in a complete randomized block design accordingly.
After defining the plants to include in the experiment, which were organized in two (2) rows of six (6) plants side-by-side in the hydroponic system, the experimental blocks were defined as groups of three plants, and a research randomizer tool (randomizer.org) was used to generate a randomized arrangement of plants in each group. Using a blocked design in this setting helped account for the immovable nature of the plants and the slight, if any, environmental differences (like natural sunlight, shading from other plants, and corner/edge effect) that existed in the small experimental area. Blocking the experimental arrangement also allowed for improved statistical analysis and resolution considering the small sample size and close proximity of the experimental plants.
After labelling each plant in the experiment with the appropriate group label (Control, T1 [CJ], or T2 [MDJ]), the plants were allowed to grow normally between treatment applications, which were performed every 14 days for a total of four (4) treatments throughout the flowering cycle, which lasted approximately eight (8) weeks. The first treatment occurred seven (7) days after the onset of the flowering cycle, which was dictated by day-length control. Care was taken with each treatment application to minimize overspray onto non-target neighboring plants, and physical barriers were temporarily installed between plants during treatment sprays to aid in this effort. These barriers were removed following treatment sprays when the foliage was no longer visibly wet from the treatment and/or control foliar sprays. […]

[2] = system: Pencicillium sclerotigenum; test: Mold growth on jasmonate-infused plates, mold isolated from sweet potato; type: cell-based; conditions: 1 mM, 5 mM, 10 mM, or 20 mM in plates
Procedure: MDJ (TCI, CAS No.: 24851-98-7) and CJ were infused into potato dextrose agar (PDA, VWR Cat No.: 90003-494) petri dishes (100×15 mm VWR, Cat No: 25384-094) at concentrations ranging from 1 mM, 4.25 mM, and 10 mM. Each treatment was prepared using a technical grade stock solution of pure chemical (CJ or MDJ) diluted with TWEEN®-20 (VWR, CAS No.: […]). Culturable oyster mushroom and seedling mold served to create fungal mycelial plugs using a sterile 1 mL pipette tip (Eppendorf, Cat No.: 022491458) held upside down. The tips were used to make circle excisions (i.e., fungal plugs) from a mycelial mat grown on PDA with no biochemical infusions. Fungal pugs were then transferred to PDA infused with varying concentrations of CJ or MDJ, and control plates (no CJ or MDJ infusion) to monitor fungal growth at room temperature over time.
Based on the above results in Cannabis spp., additional fungi from various crops was sampled and tested. Plates comprising various concentrations of MDJ or MJ were prepared as described above.

avocados = test: Fruit MDJ dips, 2 weeks observation; type: in vivo
Procedure: (§1) For fruit MDJ dips, all fruits were purchased from a local market as certified organic on 4/13/2021. Before any treatments, all fruits were submerged in boiling water to melt off any non-natural waxy coating then dried with a washcloth. Once fruits were clean and dry, they were submerged in varying concentrations of methyl dihydrojasmonate solutions. Each solution was prepared from a 1M MDJ Tween 20 stock solution diluted with RO water. 500 ml of each solution was prepared and reused for the different fruits. Each fruit was submerged for 20 seconds and then left to dry on a paper towel. After the fruits were dry the paper towels were removed and fruits left on the lab bench at room temperature grouped by treatment but not touching and monitored for visual differences for 2 weeks. The pineapple was the only fruit that was not fully submerged but instead sprayed till drip with the varying concentration of MDJ/Tween 20 solution. Then left to dry and monitored the same as the other fruits.
(§2) Treatments and Sample Sizes:
(§3) Control, water—4 lemons, 2 oranges, 1 pineapple, 1 mango, 4 strawberries, 2 grapes (˜10 grapes/bundle), 2 oranges, 4 avocados
(§4) [5] mM MDJ—4 lemons, 3 oranges, 1 pineapple, 1 mango, 4 strawberries, 2 grapes, 2 oranges, 4 avocados
(§5) [10] mM MDJ—4 lemons, 3 oranges, 0 pineapple, 1 mango, 4 strawberries, 2 grapes, 2 oranges, 4 avocados
(§6) [20] mM MDJ—5 lemons, 3 oranges, 1 pineapple, 1 mango, 4 strawberries, 2 grapes, 2 oranges, 4 avocados
(§7) Qualitative observations like color changes, firmness, mold appearance were monitored and at the end of the two weeks all fruits were cut in half to record and further observations. Penetrometer readings were recorded in the last week of observations.

blood oranges = test: Fruit MDJ dips, 2 weeks observation; type: in vivo; conditions: dip 5, 10, 20 mM; observation period 2 weeks
Procedure: as §1, §2, §3, §4, §5, §6, §7

grapes = test: Fruit MDJ dips, 2 weeks observation; type: in vivo; conditions: dip 5, 10, 20 mM
Procedure: as §1, §2, §3, §4, §5, §6, §7

lemons = test: Fruit MDJ dips, 2 weeks observation; type: in vivo; conditions: dip 5, 10, 20 mM for 20 seconds; 2 weeks at room temperature
Procedure: as §1, §2, §3, §4, §5, §6, §7

mangoes = test: Fruit MDJ dips, 2 weeks observation; type: in vivo; conditions: one fruit per group
Procedure: as §1, §2, §3, §4, §5, §6, §7

oranges = test: Fruit MDJ dips, 2 weeks observation; type: in vivo; conditions: dip 5, 10, 20 mM
Procedure: as §1, §2, §3, §4, §5, §6, §7

strawberries = test: Fruit MDJ dips, 2 weeks observation; type: in vivo

Compound: CCCCCC1C(=O)CCC1CC(=O)OC (stereo not shown) [MDJ, methyl dihydrojasmonate]
- CBGA average relative percent increase compared to the Control group [1]: 15.91%
- THCA average relative percent increase compared to the Control group [1]: 6.88%
- Total Cannabinoids average relative percent increase compared to the Control group [1]: 6.06%
- Total THC average relative percent increase compared to the Control group [1]: 5.92%
- growth of mold isolated from sweet potato [2]: effective at preventing the growth
- browning when the fruits were cut open (avocados; dip 5 mM): least signs of browning
- external browning (avocados; dip 10 mM and 20 mM groups (and control group)): more external browning
- mold (blood oranges): no mold in any of the treatment groups
- mold or observable difference between groups (grapes): did not exhibit any mold, or observable difference between groups
- visual differences externally or internally (lemons): no distinct visual differences
- internal browning when cut open, relative to the control group (mangoes; dip 5 mM): slightly less
- internal browning when cut open, relative to the control group (mangoes; dip 10 mM): less still
- internal browning when cut open (mangoes; dip 20 mM): no clear browning
- mold (oranges): no appearance of mold
- mold (strawberries; dip 1 M): prohibited mold for two weeks
- mold (strawberries; dip 5, 10, 20 mM and control): mold in all groups after one week

From patent US11638427B2, “Methods and compositions for altering secondary metabolites in plants” (Impello Biosciences, Inc, priority 2020, dated 2023)
